{
  "source": "patent US9119409B2",
  "about": "“Water soluble nutritional supplement for ruminants” (priority 2013, dated 2015)",
  "origin": "cited, not measured here",
  "note": "Like-named read-outs stand apart in the source and are kept apart here.",
  "data": [
    {"smiles": "O=C([O-])[O-].[Ca+2]", "note": "[calcium carbonate]", "values": [
      {"measurement": "bioavailability", "setting": "at a pH greater than 4", "value": "less than 1%"},
      {"measurement": "bioavailability", "setting": "at a pH of 1.5", "value": "around 75%"}
    ]}
  ]
}
